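Test compounds were applied to cells in 96-well plates for 48 hours at 5 doses. GI50 marks 50% less growth.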 Calls of active or inactive are those of the source. Rule as the data show it: active = GI50 up to about 1.1 µM and inactive = higher.
Tests used:
Test in all cases: NCI-60 cell line screen, 48 h
Malme-3M = test system: Malme-3M
NCI-H522 = test system: NCI-H522
HT-29 = test system: HT-29
CCRF-CEM = test system: CCRF-CEM
SF-268 = test system: SF-268
MOLT-4 = test system: MOLT-4
SK-MEL-5 = test system: SK-MEL-5
OVCAR-4 = test system: OVCAR-4
HCT-15 = test system: HCT-15
HOP-62 = test system: HOP-62
OVCAR-8 = test system: OVCAR-8
DU-145 = test system: DU-145
SK-MEL-28 = test system: SK-MEL-28
MDA-MB-435 = test system: MDA-MB-435
UACC-62 = test system: UACC-62
HCT-116 = test system: HCT-116
SK-MEL-2 = test system: SK-MEL-2
KM12 = test system: KM12
SF-539 = test system: SF-539
UACC-257 = test system: UACC-257

SMILES | GI50 (Malme-3M) | GI50 (NCI-H522) | GI50 (HT-29) | GI50 (CCRF-CEM) | GI50 (SF-268) | GI50 (MOLT-4) | GI50 (SK-MEL-5) | GI50 (OVCAR-4) | GI50 (HCT-15) [µM] | GI50 (HOP-62) | GI50 (OVCAR-8) | GI50 (DU-145) | GI50 (SK-MEL-28) | GI50 (MDA-MB-435) | GI50 (UACC-62) | GI50 (HCT-116) | GI50 (SK-MEL-2) | GI50 (KM12) | GI50 (SF-539) | GI50 (UACC-257)
O=c1[nH]cnc2c1sc1nc3ccccc3n12 | > 100 µM (inactive) | > 100 µM (inactive) | > 100 µM (inactive) | 55.6 µM (inactive) | > 100 µM (inactive) | 90.6 µM (inactive) | > 100 µM (inactive) | > 100 µM (inactive) | 80.9 | > 100 µM (inactive) | > 100 µM (inactive) | > 100 µM (inactive) | > 100 µM (inactive) | > 100 µM (inactive) | 30.5 µM (inactive) | 70.3 µM (inactive) | 55.8 µM (inactive) | 5.96 µM (inactive) | 61.9 µM (inactive) | > 100 µM (inactive)
N/N=C(\N)SCc1ccc(N=C=S)cc1 | > 100 µM (inactive) | 5.9 µM (inactive) | > 100 µM (inactive) | > 100 µM (inactive) | > 100 µM (inactive) | > 100 µM (inactive) | > 100 µM (inactive) | > 100 µM (inactive) | > 100 | > 100 µM (inactive) | > 100 µM (inactive) | > 100 µM (inactive) | > 100 µM (inactive) | > 100 µM (inactive) | > 100 µM (inactive) | > 100 µM (inactive) | > 100 µM (inactive) | > 100 µM (inactive) | > 100 µM (inactive) | > 100 µM (inactive)
O=[N+]([O-])c1ccc(C(=S)Nc2ccccc2)o1 | 2.91 µM (inactive) | 1.34 µM (inactive) | 1.85 µM (inactive) | 2.45 µM (inactive) | 3.36 µM (inactive) | 1.26 µM (inactive) | 10.9 µM (inactive) | 2.43 µM (inactive) | 2.07 | 2.65 µM (inactive) | 2.51 µM (inactive) | 6.41 µM (inactive) | 4.27 µM (inactive) | 2.58 µM (inactive) | 3.46 µM (inactive) | 1.81 µM (inactive) | 2.48 µM (inactive) | 2.38 µM (inactive) | 1.58 µM (inactive) | 4.3 µM (inactive)
Cc1cc(-c2ccc(C(=O)C(Cl)(Cl)Cl)[nH]2)on1 | 73.1 µM (inactive) | 21.2 µM (inactive) | 28.4 µM (inactive) | 27.2 µM (inactive) | 36.9 µM (inactive) | 2.95 µM (inactive) | 32.8 µM (inactive) | 35.5 µM (inactive) | 28 | 11.4 µM (inactive) | 32.7 µM (inactive) | 16.1 µM (inactive) | 31.4 µM (inactive) | 20.5 µM (inactive) | 28.2 µM (inactive) | 18 µM (inactive) | 23.9 µM (inactive) | 12.2 µM (inactive) | 15.3 µM (inactive) | 42.1 µM (inactive)
COc1nc2ncc([C@@H](OC(C)=O)[C@@H](COC(C)=O)OC(C)=O)nc2c(=O)n1C | > 100 µM (inactive) | 57.5 µM (inactive) | > 100 µM (inactive) | 58.1 µM (inactive) | > 100 µM (inactive) | > 100 µM (inactive) | > 100 µM (inactive) | 48 µM (inactive) | > 100 | > 100 µM (inactive) | > 100 µM (inactive) | > 100 µM (inactive) | > 100 µM (inactive) | > 100 µM (inactive) | > 100 µM (inactive) | > 100 µM (inactive) | > 100 µM (inactive) | > 100 µM (inactive) | > 100 µM (inactive) | > 100 µM (inactive)
COc1cc([C@@H]2c3cc4c(cc3[C@@H](c3c(O)cc(O)c5c3O[C@H](c3ccc(O)c(O)c3)[C@H](OC(=O)c3cc(O)c(O)c(O)c3)C5)[C@H]3COC(=O)[C@H]23)OCO4)cc(OC)c1O | > 100 µM (inactive) | 24 µM (inactive) | 25 µM (inactive) | 24.4 µM (inactive) | 30.8 µM (inactive) | 33.7 µM (inactive) | 25.8 µM (inactive) | > 100 µM (inactive) | 40.8 | 51.8 µM (inactive) | 35.6 µM (inactive) | 32 µM (inactive) | 79.8 µM (inactive) | 22.6 µM (inactive) | 98.9 µM (inactive) | 23.7 µM (inactive) | 57.9 µM (inactive) | 32 µM (inactive) | 24.1 µM (inactive) | > 100 µM (inactive)
NC(=O)c1nc[nH]c1/N=N/SCC(N)C(=O)O (stereo not given) | 5.9 µM (inactive) | > 68.7 µM (inactive) | > 100 µM (inactive) | 2 µM (inactive) | 10.7 µM (inactive) | 0.962 µM (active) | 57 µM (inactive) | 11.3 µM (inactive) | 43.2 | 28.7 µM (inactive) | 5.74 µM (inactive) | 5.11 µM (inactive) | > 100 µM (inactive) | 33.1 µM (inactive) | 6.31 µM (inactive) | 6.9 µM (inactive) | 3.33 µM (inactive) | 14.2 µM (inactive) | 17.6 µM (inactive) | 54.8 µM (inactive)
CCOC(=O)c1c(N2CCCC2)ncn(Cc2ccccc2)c1=S | > 100 µM (inactive) | > 100 µM (inactive) | > 100 µM (inactive) | > 100 µM (inactive) | > 100 µM (inactive) | 92.3 µM (inactive) | 65.3 µM (inactive) | 91.4 µM (inactive) | > 100 | > 100 µM (inactive) | > 100 µM (inactive) | > 100 µM (inactive) | > 100 µM (inactive) | > 100 µM (inactive) | 63 µM (inactive) | > 100 µM (inactive) | > 100 µM (inactive) | > 100 µM (inactive) | > 100 µM (inactive) | > 100 µM (inactive)
S=C(N/N=C/c1ccccn1)N1CC2CCC(CC2)C1 | < 0.047 µM (active) | < 0.01 µM (active) | < 0.01 µM (active) | < 0.01 µM (active) | 0.0301 µM (active) | < 0.01 µM (active) | < 0.01 µM (active) | 0.0308 µM (active) | < 0.01 | < 0.01 µM (active) | < 0.01 µM (active) | 0.0471 µM (active) | 0.0559 µM (active) | 0.0404 µM (active) | < 0.0365 µM (active) | < 0.01 µM (active) | < 0.0471 µM (active) | < 0.01 µM (active) | < 0.0229 µM (active) | < 0.01 µM (active)
CCOC(=O)C1CCCCN1CCc1c[nH]c2ccccc12 (stereo not given) | > 100 µM (inactive) | 56.2 µM (inactive) | 50.9 µM (inactive) | > 100 µM (inactive) | > 100 µM (inactive) | 25.1 µM (inactive) | 80.9 µM (inactive) | 73.5 µM (inactive) | 93.1 | > 100 µM (inactive) | > 100 µM (inactive) | > 100 µM (inactive) | > 100 µM (inactive) | > 100 µM (inactive) | > 100 µM (inactive) | 60 µM (inactive) | > 100 µM (inactive) | > 100 µM (inactive) | > 100 µM (inactive) | > 100 µM (inactive)
CC(NC(=O)C(NC(=O)C(NC(=O)C(F)(F)F)C(C)C)C(C)C)C(=O)Oc1c(Cl)c(Cl)c(Cl)c(Cl)c1Cl (stereo not given) | > 100 µM (inactive) | 85.5 µM (inactive) | > 100 µM (inactive) | > 100 µM (inactive) | > 100 µM (inactive) | > 100 µM (inactive) | > 100 µM (inactive) | > 100 µM (inactive) | > 100 | > 100 µM (inactive) | > 100 µM (inactive) | > 100 µM (inactive) | > 100 µM (inactive) | > 100 µM (inactive) | > 100 µM (inactive) | > 100 µM (inactive) | > 100 µM (inactive) | > 100 µM (inactive) | > 100 µM (inactive) | > 100 µM (inactive)
CNc1cc(Cl)ccc1C(=O)N1CCC[C@H]1CO | > 100 µM (inactive) | > 100 µM (inactive) | > 100 µM (inactive) | > 100 µM (inactive) | > 100 µM (inactive) | > 100 µM (inactive) | 74.1 µM (inactive) | 29.2 µM (inactive) | > 100 | > 100 µM (inactive) | > 100 µM (inactive) | > 100 µM (inactive) | > 100 µM (inactive) | > 100 µM (inactive) | > 100 µM (inactive) | > 100 µM (inactive) | > 100 µM (inactive) | > 100 µM (inactive) | > 100 µM (inactive) | > 100 µM (inactive)
